Assays:
[1] = Hydrating and protective activity of creams on the forearm (corneometer, Visioscan); type: in vivo; conditions: human subjects
Experimental: 20 human subjects aged between 18 and 70 years, with no skin pathologies and pharmacological treatment underway, were treated daily with certain and constant quantities of the products tested, at the level of the forearm. The experimental products were: control: consisting of a hydrating base cream base cream (as control) containing HA 200 KD 01% base cream (as control) containing HAS3 01%, prepared according to Example 1-2 […]

TNF receptor = experiment: Inhibition of the binding of 125I-TNF to its receptor in U937 cells (Radioligand Binding); parameters: species or system human; conditions: 125I-TNF 0.028 nM, sample 1 mg/ml, 4° C. 3 hours, medium and low MW
Text: These experiments were effected to evaluate the effectiveness of the samples tested (prepared according to Examples 1-4) on the capacity of inhibiting the binding of TNF to its receptor expressed by cells of the I.S. normally used in vitro for this type of experiment, carried out with iodinated cytokine components for an evaluation in Radioligand Binding assays. The experimental procedure was effected as described in Baglioni C. et al., J Biol Chem, 1985, 260:13395-13397. In short, the line of human histiocytes of the lymphoma U937 was used, with characteristics of monocytes sensitive to the cytotoxic activity of TNF, expressing its relative receptor. […] At the end of the incubation, the cells were centrifuged with dibutylphthalate/dinonylphthalate 2/1 and the pellet obtained was counted in a γ-counter.

IL-2 = experiment: Protein synthesis of IL-2 in human PBMC (SearchLight array); conditions: not stimulated or stimulated with LPS or PHA (10 μg/ml), 24 hours, FIG. 6: HAS1 0.1 mg/ml, HAS3 1 mg/ml, vs HA
Experimental: For these experimentations, mononucleate cells of human peripheral blood (PBMC) were adopted, deriving from various donors for evaluating the effect of HAS on the production of the cytokines listed above, using:
The separation of the PBMC (Bøyum A., Scand J Clin Lab Invest 21 Suppl, 1968, 97:77-89) was effected using the product Ficoll-Paque PLUS (GE Healthcare) and following the protocol indicated by the supplier. At day zero 100,000 cells were plated per well (using plates with 96 wells) in 200 μl of medium RPMI 1640, to which 10% of fetal bovine serum, HEPES 10 mM, Glutamine 2 mM, 1% Penicillin-Streptomycin 100 U/ml, had been added. […] The cells were treated separately with the three compounds at a concentration of 0.1 mg/ml or 1 mg/ml. After 24 hours of incubation at 37° C. (5% CO2), 100 μl of supernatant were taken from each well in order to analyze the production of IL-2, IL-7, IL-10 and IL-12.
The quantification of the inflammation mediators was effected by means of the SearchLight® technology, using a Custom Human 9-flex Array plate following the protocol indicated by the supplier in the technical card.

[2] = system: Vesicular stomatitis virus: VSV; type: cell-based
IL-10 = experiment: Gene expression of IL-10 in human synoviocytes (PCR Real Time); type: cell-based; conditions: 3 days of treatment, FIG. 1: HAS1 0.5 mg/ml, HAS3 0.1 mg/ml, vs control treated with non-sulfated HA 200 KD
Experimental: Human synoviocytes previously expanded in vitro and maintained in a culture at 37° C. with a medium of DMEM containing 10% of FCS, were seeded at a concentration of 20,000 cells per well (synoviocytes are cells capable of producing various types of cytokines, and are therefore normally used for this type of experimental test). […] After 3 days of treatment, the PCR Real Time was effected to evaluate the gene expression of IL-10 and IL-12: the cell RNA was extracted using the “Trizol” method, following the indications of the supplier (TRIZOL reagent, LIFE Technologies, GIBCO BRL). In short, the cells were lysed by the addition of 1.0 ml of Trizol and the total RNA was quantified by measuring its absorbance at 260 nm. The appropriate primers were selected for each gene to be amplified, using the software Primer3 (Roche Molecular Diagnostics, Pleasanton, Calif., USA). The gene expression was evaluated by means of PCR Real Time effected with a Rotor-gene TM5500 (Corbett research, Sydney, Australia). The PCR reactions were effected using primers at […] and SYBR Green (Invitroge, Carlsbad, Calif., USA) at 40 cycles of 15 s at 95° C., and 1 min. at 60° C. The value of “Fluorescence thresholds (Ct)” was automatically determined by the software, evaluating an amplification coefficient for the genes studied between 92 and 110%. […]

[3] = type: in vitro ADME
Experimental: The skin used for effecting the experiments is obtained from the abdomen of patients between 30 and 50 years old, subjected to surgical abdominal reductions. The sections of skin with a complete thickness are frozen after the surgical intervention and preserved at −20° C. until the moment of the experiment, in which the samples are defrozen at room temperature and accurately separated from the adipose tissue. The skin is divided into square sections of 2.5 cm^2, immersed for a minute in water at a temperature of 60° C. and with the help of specific tweezers, the corneal layer and epidermis (SCE) are accurately separated from the underlying tissues. The samples obtained are analyzed with an optical microscope and discarded if punctures are found. The SCE is assembled in the lower part of a Franz cell with the epidermis facing downwards and the corneal layer in contact with the donor solution which is situated above. The permeation area is a circular surface of 0.636 cm^2. […] Each experiment is effected triply and the result is intended as the average of the 3, expressed as quantity of analyte which has crossed the surface unit of skin after 24 hours. […] The concentration of diclofenac was determined through reverse-phase HPLC analysis on an apparatus Agilent 1200 Series and UV detection (254 nm), C18 column, eluent acetonitrile/water/acetic acid 50/46/4 with a flow of 1.2 ml/min.

Substance: sulfated hyaluronic acid degree 3 [HAS3]
- skin roughness index ([1]; after 7 days of treatment, base cream containing HAS3 01%, with respect to the controls): significantly diminished
- hydrating effect of the skin (corneometer) ([1]; daily, T7 vs T0, base cream containing HAS3 01%, vs base cream and cream containing HA): greater hydrating effect
- inhibition of the binding of TNF to its receptor (TNF receptor): 100%
- synthesis of IL-2 (IL-2): significantly reducing
- antiviral activity (inhibition of the cytopathogenicity of the virus) vs VSV [2]: very powerful antiviral activity
- gene expression of the cytokine IL-10 (IL-10): significant increase
- total permeate quantity of diclofenac in 24 h [3]: doubling

Reference: patent publication US11198741B2, “Medicines for topic use based on sulfated hyaluronic acid as activating or inhibiting agent of the cytokine activity” (Fidia Farmaceutici S.p.A., priority 2009, dated 2021)
